According to US5281581A, “Treatment of insulin resistance” (Amylin Pharmaceuticals, Inc., priority 1992, dated 1994):

Tested on: rat islets of Langerhans
Assay: glucose-stimulated insulin secretion by isolated islets of Langerhans
Assay type: cell-based
Settings: glucose 10 mmol/L
Experimental: All experiments were performed by known methods used in experimental practice. See, e.g., Lacey P. E., and Kostianovsky M, Method for the isolation of intact islets of Langerhans from the rat pancreas. Diabetes 1967; 16: 35-39.
Briefly, rats were killed, and islets of Langerhans were isolated from their pancreases. Experiments were performed either with freshly isolated islets or after overnight incubation of islets (23 h) in standard culture medium and conditions at 37° C. […] Incubation of islets for these experiments was carried out in standard Krebs-Heinsleit buffer, and it was verified that the addition of the 1.0 mmol/L citrate buffer had no effect on the pH of the incubation medium. Stimulation of islets was carried out at the standard stimulatory glucose concentration of 10 mmol/L.
Production of insulin is expressed as μU/islet/h. All experiments were performed with five replicates per point. The integrity of the islet response was assessed by comparing the responses after stimulation of different aliquots of islets by two and ten mmol/L glucose, respectively, and the strength of the inhibitory response was judged against that induced by 1 μg/ml (650 nmol/L) somatostatin. […] See Arimura A. Biomed res 1981; 2: 233-257. […] See Petterson M., Ahren B., Bottcher G., Sundler F., Endocrinology 1986; 119: 865-869.
The results are shown in TABLE 5 below and all results are expressed as ± standard error of the mean (s.e.m.). The significance of differences between the means of groups is assessed by the t-test. The result of stimulation by 10 mmol/L glucose is compared with the results of stimulation at 2 mmol/L glucose. In all other experimental conditions, the significance of the inhibitory effect is measured against the effect of 10 mmol/L glucose alone.

Row | Molecule | INSULIN PRODUCTION Mean Value (substance 650 nmol/L) [μU/islet/hr] | RELATIVE INSULIN SECRETION INHIBITION (substance 650 nmol/L) [%] | INSULIN PRODUCTION Mean Value (substance 10 nmol/L) [μU/islet/hr] | RELATIVE INSULIN SECRETION INHIBITION (substance 10 nmol/L) [%] | INSULIN PRODUCTION Mean Value (substance 100 nmol/L) [μU/islet/hr] | RELATIVE INSULIN SECRETION INHIBITION (substance 100 nmol/L) [%] | INSULIN PRODUCTION Mean Value (substance 1000 nmol/L) [μU/islet/hr] | RELATIVE INSULIN SECRETION INHIBITION (substance 1000 nmol/L) [%]
1 | C[C@H](N)C(=O)NCC(=O)N[C@H]1CSSC[C@@H](C(=O)O)NC(=O)[C@H](CO)NC(=O)[C@H]([C@@H](C)O)NC(=O)[C@H](Cc2ccccc2)NC(=O)[C@H]([C@@H](C)O)NC(=O)[C@H](CCCCN)NC(=O)[C@H](Cc2c[nH]c3ccccc23)NC(=O)[C@H](Cc2ccccc2)NC(=O)[C@H](Cc2ccccc2)NC(=O)[C@H](CC(N)=O)NC(=O)[C@H](CCCCN)NC1=O [Somatostatin, reference compound] | 44 | 45 |  |  |  |  |  | 
2 | CGRP 27-37 |  |  | 36 | 55 | 36 | 55 | 46 | 42
